These are literature values, as cited in patent US6423719B1, “Method for treating benign prostate hyperplasia” (Upsher-Smith Laboratories, Inc., priority 1999, dated 2002).

The target of data set [1] is T1, 5α-reductase (Homo sapiens, UniProt P31213).
T1 sequence (P31213 1-254): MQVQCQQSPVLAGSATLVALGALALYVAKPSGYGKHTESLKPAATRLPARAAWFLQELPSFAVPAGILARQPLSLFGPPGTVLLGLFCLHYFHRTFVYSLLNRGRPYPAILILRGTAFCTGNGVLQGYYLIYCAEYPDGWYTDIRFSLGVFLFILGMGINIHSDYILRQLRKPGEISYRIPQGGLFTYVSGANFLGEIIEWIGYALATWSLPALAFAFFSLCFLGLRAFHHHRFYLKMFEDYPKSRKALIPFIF
The following applies: stable enzyme complex with 5α-reductase.

For data set [2] the following is noted: in vivo.
For data set [3] the following is noted: for bioavailability / half life (plasma / elimination): in vivo.

In the case of `CC(C)(C)NC(=O)[C@H]1CC[C@H]2[C@@H]3CC[C@H]4NC(=O)C=C[C@]4(C)[C@H]3CC[C@]12C` [Finasteride, N-(2-methyl-2-propyl)3-oxo-4-aza-5α-androst-1-ene-17β-carboxamide], in data set [1], the “turnover from the enzyme complex (t½)” value is recorded as about 30 days.

As to `Cn1c(=O)c2[nH]cnc2n(C)c1=O` [theophylline], in data set [2], the “dose excreted unchanged in the urine” value is “about 10%”.

With `CC(COc1ccccc1)N(CCCl)Cc1ccccc1` (stereo not drawn) [Phenoxybenzamine], the half life entry in data set [3] (administered intravenously) is “approximately 24 hours”.

For `O=C(NC1CCN(CCc2c[nH]c3ccccc23)CC1)c1ccccc1` [Indoramin], in data set [3], the bioavailability result is “less than 30%” and the “half life (plasma / elimination)” value was “about 5 hours”. `COc1cc2nc(N(C)CCCNC(=O)C3CCCO3)nc(N)c2cc1OC` (stereo not drawn) [Alfuzosin]: the “half life (plasma / elimination)” value in data set [3] was “about 5 hours”.

Regarding `COc1cc2nc(N3CCN(C(=O)C4CCCO4)CC3)nc(N)c2cc1OC` (stereo not drawn) [Terazosin], the water solubility entry is reported as “more water soluble than prazoin”. In data set [3], the bioavailability entry is “greater than 90%” and the “half life (plasma / elimination)” value is listed as “approximately 12 hours”.
